# Data published in patent US20160317473A1, “METHODS OF TREATING OR PREVENTING BRAIN DAMAGE DUE TO HYPOXIC-ISCHEMIA” (EMORY UNIVERSITY, priority 2014, published 2016).
# “Also recorded” adds a separate entry of the source.
# How the values were obtained:
# [1] = tested on: LPS/HI-injured P7 rat pups; test: LPS-sensitized HI (LPS/HI) brain injury model in P7 rats; type: in vivo
# Protocol: To test whether intrauterine infection accelerates the development of TH17 lymphocytes, the expression of IL-23 receptor (IL-23R) mRNA, a marker of TH17 cells, was compared in aliquots of cord blood mononuclear cells isolated from late preterm neonates (32-36 gestational weeks) with and without histological chorioamnionitis. […] A well-characterized LPS-sensitized HI brain injury model in P7 rats was used to compare the effects of low-dose LPS (0.3 mg/kg, IP), HI, and combined LPS/HI on the expression of IL-23R mRNA in the peripheral blood mononuclear cells.
# The effects of FTY720 administration (1 μg/g, IP) after LPS/HI insult in P7 rat pups were examined.
# (§1) Flow cytometry we used to compare the percentage of CD4+ IL-17A+T-cells at 24 h after LPS, HI (90 min), or LPS+80 min HI brain injury. A longer duration of pure-HI insult was chosen because 80-min HI produced milder brain damage and little neuroinflammation. The TH17/IL-17 activity was compared under pure-HI (90 min) and LPS/HI (80 min) insults that produce similar levels of brain injury. […] The dual LPS/HI insult led to a significant increase to 21% of CD4+ IL-17A+ T-cells, which was reduced to 12% by FTY720 treatment (FIG. 3A).
# (§2) Whether (p)FTY720 exerts direct neuroprotection was investigated. The effects of FTY720 on pure-HI (90 min) and LPS-sensitized HI insult (80 min) were compared reasoning that FTY720 should oppose both insults if its benefits are derived primarily from neuronal protection. Of note, because 80 min pure-HI insult caused little brain damage, a longer duration of pure-HI (90 min) we used in this experiment.
# Magnetic resonance imaging (MRI) and behavioral testing were used to assess both acute and long-term effects of FTY720 treatment in LPS/HI injury. […] Two weeks later, the TBSS-identified at-risk gray and white matter became atrophic or distorted in saline-treated rat pups.
# [2] = tested on: pure-HI injured rat pups; test: pure-HI (90 min) brain injury in rat pups; type: in vivo
# Protocol: as §1, §2
# [3] = tested on: microglial activation in P7 rats; test: intracerebroventricular (ICV) injection of LPS in P7 rats, model of direct microglial activation; type: in vivo, rat; conditions: FTY720 1 μg/g IP; LPS 2 μg ICV
# Protocol: (§3) Experiments herein indicate FTY720 primarily blocks brain influx of leukocytes to prevent LPS/HI-induced neuroinflammation. […] To distinguish between these two scenarios, the effects of FTY720 was tested on the MCP1 induction following cerebral ventricle-injection of LPS, a paradigm of direct microglial activation. […] Intracerebroventricular (ICV) injection of LPS was performed in bitransgenic CX3CR1-GFP; CCR2-RFP mice, in which the microglia and circulating monocytes are marked by the green and red fluorescence protein, respectively. In unchallenged mice, the brains were largely devoid of monocytes and the microglial processes were excluded from the hippocampal pyramidal cell layer.
# [4] = tested on: microglia and monocytes in CX3CR1-GFP; CCR2-RFP mice; test: ICV injection of LPS in P10 CX3CR1-GFP; CCR2-RFP mice; type: in vivo; conditions: 24 h after ICV LPS 1 μg; FTY720 1 μg/g
# Protocol: In untouched mice, few GFP+ microglial processes extended into the pyramidal cell layer in the hippocampal (CA), and almost no RFP+ monocytes were detected in the brain.
# as §3
# [5] = tested on: SM826 microglial cells; test: LPS-induced activation of immortalized microglia SM826 cells; type: cell-based
# From the text: These in-vivo and in-vitro results argued against direct inhibition of microglia by FTY720, which prompted us to examine the expression of S1P receptor isoforms in neonatal rat microglia. […] Thus, the effects of pFTY720 and S1P on LPS-induced expression of IL-23 (a key factor for TH17 cell differentiation), TNFα (Tumor Necrosis Factor-alpha), and iNOS mRNA were compared. […] Finally, the effects of S1P and Tat-NBD, an anti-NFKB peptide, were compared on the intracellular signaling responses to LPS in immortalized microglial cells.
# [6] = tested on: LPS/HI-injured P10 mice; test: LPS/HI injury in P10 mice; type: in vivo; conditions: two doses of 25 mg/kg, 16 h pre- & 1 h post-LPS/HI
# Protocol: An experiment was performed to test the effects of SR1001, a small-molecule inhibitor of RORc, in LPS/HI injury in P10 mice.
# [7] = target: S1PR2 (Homo sapiens, UniProt O95136); conditions: Mandala et al., 2002; cited from earlier work
# Sequence of S1PR2 (O95136 whole entry, species assumed): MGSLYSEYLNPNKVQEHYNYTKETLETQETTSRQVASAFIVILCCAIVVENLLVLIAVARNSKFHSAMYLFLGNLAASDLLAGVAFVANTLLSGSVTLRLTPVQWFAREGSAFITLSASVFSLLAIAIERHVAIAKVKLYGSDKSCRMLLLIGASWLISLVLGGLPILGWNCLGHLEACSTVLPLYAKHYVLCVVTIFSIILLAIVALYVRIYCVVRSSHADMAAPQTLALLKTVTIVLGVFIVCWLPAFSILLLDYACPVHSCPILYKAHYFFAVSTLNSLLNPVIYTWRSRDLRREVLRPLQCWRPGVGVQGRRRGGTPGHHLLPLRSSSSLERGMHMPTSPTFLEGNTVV
compound,measurement,setting,value
"CCCCCCCCc1ccc(CCC(N)(CO)CO)cc1 [FTY720, 2-amino-2-[2-(4-octylphenyl)ethyl]propane-1,3-diol]",LPS/HI-induced MCP1 expression in the brain (ELISA),[1]; 18-24 h following LPS/HI,markedly reduced; also recorded: significant attenuation
same,LPS/HI-induced MCP1 in the plasma (ELISA),[1]; 18-24 h following LPS/HI,failed to prevent
same,post-LPS/HI induction of TSPO mRNA (marker for activated microglia),[1]; 18-24 h following LPS/HI,markedly reduced
same,ribbon-like CD43 immunoreactivity in the ipsilateral choroid plexus,[1]; 4 h after LPS/HI,preserved; also recorded: less pronounced
same,IL-23R mRNA levels in peripheral blood mononuclear cells (normalized to actin),"[1]; 4 h after LPS/HI, FTY720 1 μg/g IP",blocked the increase
same,influx of CD43+ leukocytes in choroid plexus / ipsilateral subcortical white matter,[1]; 4 h post-LPS/HI,mitigated the influx; also recorded: absence of CD43+ cells; also recorded: not in the contralateral hemisphere or after the FTY720 treatment
same,"nuclear NF-κB activity (EMSA, brain nuclear extract)",[1]; 4 h recovery from LPS/HI,greatly reduced; also recorded: prevented the high-order DNA-protein complex
same,reduction/degradation of cytoplasmic IκBα in the ipsilateral hemisphere,[1]; 4 h recovery from LPS/HI,greatly reduced; also recorded: averted
same,BBB permeability (NaF fluorescence / extravasation),[1]; 24 h after LPS/HI,markedly attenuated; also recorded: significantly reduced
same,MMP9 induction/activity in ipsilateral hemisphere (zymogram),[1]; 24 h after LPS/HI,diminished; also recorded: absence of MMP9 induction
same,ADC (apparent diffusion coefficient) signals in the cerebral cortex (MRI),"[1]; 24 h after LPS/HI, vs saline",mitigated; also recorded: significant preservation
same,increase of brain MCP1 protein (cytokine array),"[1]; 24 h after LPS/HI, 9.7-fold without treatment",3 fold
same,brain cytoarchitectural distinctions in the ipsilateral hemisphere (MEMRI),[1]; 24 h post-LPS/HI,preserved
same,increased sodium concentration in the ipsilateral hemisphere (sodium MRI),[1]; 24 h recovery,mitigated
same,CD43+ leukocytes in the cortical gray matter,[1]; 24 h recovery after LPS/HI,absent
same,accumulation of CD43+ leukocytes in the leptomeningeal space,[1]; 24 h recovery after LPS/HI,prevented the accumulation
same,latency to fall on rotarods,[1]; 24 days of age after LPS/HI,near-normal
same,brain atrophy,[1]; LPS/HI injury,dose-dependent reduction
same,LPS/HI-induced brain Gata3 mRNA,[1]; RT-PCR,not
same,LPS/HI-induced brain IL-13 mRNA,[1]; RT-PCR,not
same,LPS/HI-induced brain IL-17A mRNA,[1]; RT-PCR,significantly decreased
same,LPS/HI-induced brain IL-23 receptor mRNA,[1]; RT-PCR,significantly decreased
same,LPS/HI-induced brain RORc mRNA,[1]; RT-PCR,significantly decreased
same,LPS/HI-induced brain Tbx21/T-bet mRNA,[1]; RT-PCR,significantly attenuated; also recorded: significantly decreased
same,gain in body weight,[1]; by 24 days of age after LPS/HI,near-normal gain
same,impairment of neonatal development,"[1]; rat, in vivo",does not impair neonatal development
same,LPS/HI-induced tissue loss salvaged in the hippocampus and the cerebral cortex,[1]; treatment started within 30 min after injury,> 90%
same,HI-induced MMP9 activation in ipsilateral cortical hemisphere (zymogram),"[2]; 24 h recovery, pure-HI",failed to prevent
same,brain atrophy / injury after pure-HI,"[2]; pure-HI 90 min, acute FTY720 treatment",failed to prevent; also recorded: ineffective
same,worsening of pure-HI brain injury,"[2]; rat, in vivo",does not impair neonatal development or worsen pure-HI brain injury
same,induction of MCP1 after ICV injection of LPS,[3],unable to prevent
same,microglial processes in hippocampal pyramidal cell layer and monocytes in the brain,[4],showed intrusion of hypertrophic microglia processes in the hippocampal pyramidal cell layer and a massive influx of monocytes; also recorded: hypertrophic microglial processes extended into the pyramidal cell layer and a large number of monocytes were found in the brain
"CCCCCCCCCCCCC/C=C/[C@@H](O)[C@@H](N)COP(=O)(O)O [S1P, sphingosine-1-phosphate]",LPS-induced IL-23 mRNA,[5],neither phospho-FTY720 nor sphingosine-1-phosphate (S1P) prevented
same,LPS-induced IκBα degradation in the cytosol (immunoblot),"[5]; 5, 20 μM, LPS 5 ng/ml, 30 min",no opposing effects; also recorded: lacked this effect
same,LPS-induced nuclear accumulation of NFκB/RelA (immunoblot),"[5]; 5, 20 μM, LPS 5 ng/ml, 30 min",no opposing effects; also recorded: lacked this effect
same,S1PR1 mRNA,[5]; negative feedback of the signaling pathway,dose-dependent reduction
same,"microglial activation: LPS-induced expression of IL-23, TNFα and iNOS mRNA",[5]; up to 10 μM,neither pFTY720 nor S1P (up to 10 μM) suppressed
"CC(=O)Nc1nc(C)c(S(=O)(=O)Nc2ccc(C(O)(C(F)(F)F)C(F)(F)F)cc2)s1 [SR1001, N-(5-(N-(4-(1,1,1,3,3,3-hexafluoro-2-hydroxypropan-2-yl)phenyl)sulphamoyl)-4-methylthiazol-2-yl)acetamide]",brain atrophy (tissue loss),[6],significantly reduced
same,induction of TH17 cells,[6],significantly reduced
same,microglial activation/TSPO marker,[6],significantly reduced
CCCCCCCCc1ccc(CCC(N)(CO)COP(=O)(O)O)cc1 (centres unmarked) [phospho-FTY720],LPS-induced IL-23 mRNA,[5],neither phospho-FTY720 nor sphingosine-1-phosphate (S1P) prevented
same,LPS-induced COX2 expression,"[5]; 2-10 μM, LPS 5 ng/ml",failed to prevent
same,LPS-induced iNOS expression,"[5]; 2-10 μM, LPS 5 ng/ml",failed to prevent
same,"microglial activation: LPS-induced expression of IL-23, TNFα and iNOS mRNA",[5]; up to 10 μM,neither pFTY720 nor S1P (up to 10 μM) suppressed
same,LPS-mediated induction of IL-1β,"[5]; up to 10 μM, LPS 5 ng/ml",failed to attenuate
same,LPS-mediated induction of IL-6,"[5]; up to 10 μM, LPS 5 ng/ml",failed to attenuate
same,binding affinity to the S1PR2 isoform,[7],lacks binding affinity
